According to US8686075B2, “Polysulfone compositions and methods for the manufacture and use thereof” (SABIC Innovative Plastics IP B.V., priority 2011, dated 2014):

Columns and labels:
[1] = target: recombinant human estradiol receptors (rhER) beta 1 (β1) (Homo sapiens, UniProt Q92731); test: competitive binding assay, displacement of [3H] estradiol radioligand from rhER beta 1; conditions: tested up to 2.5×E-4 M
[2] = target: T1, recombinant human estradiol receptors (rhER) alpha (α) (Homo sapiens, UniProt P03372); test: competitive binding assay, displacement of [3H] estradiol radioligand from rhER alpha; conditions: text statements, tested up to 2.5×E-4 M
T1 sequence (P03372 1-595): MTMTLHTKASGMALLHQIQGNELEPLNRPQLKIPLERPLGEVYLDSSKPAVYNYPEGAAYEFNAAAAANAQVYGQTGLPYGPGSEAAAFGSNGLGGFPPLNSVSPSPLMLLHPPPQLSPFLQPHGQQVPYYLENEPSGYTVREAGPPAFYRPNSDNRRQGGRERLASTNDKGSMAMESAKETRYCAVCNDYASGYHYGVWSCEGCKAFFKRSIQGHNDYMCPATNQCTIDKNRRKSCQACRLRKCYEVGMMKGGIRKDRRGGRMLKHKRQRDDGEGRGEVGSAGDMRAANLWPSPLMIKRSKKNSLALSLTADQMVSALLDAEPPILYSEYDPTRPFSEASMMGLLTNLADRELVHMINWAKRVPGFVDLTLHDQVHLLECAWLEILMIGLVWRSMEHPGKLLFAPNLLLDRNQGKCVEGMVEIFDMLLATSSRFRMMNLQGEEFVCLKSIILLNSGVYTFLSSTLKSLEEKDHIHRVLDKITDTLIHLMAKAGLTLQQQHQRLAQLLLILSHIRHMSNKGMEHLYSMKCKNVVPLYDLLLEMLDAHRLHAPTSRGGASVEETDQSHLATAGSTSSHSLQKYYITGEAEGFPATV

Molecule | estradiol binding / displacement at the beta estradiol receptor (in words) ([1]; text statements) | estradiol binding / displacement at the alpha estradiol receptor (in words) [2] | also measured
Fluorenone Bis-o-Cresol [reference compound] | displace estradiol at low concentrations |  | 
O=C1OC(c2ccc(O)cc2)(c2ccc(O)cc2)c2ccccc21 [O, Phenolphthalein, reference compound] | estradiol displacement at low concentration |  | 
Bisphenol Acetophenone [D, reference compound] |  | displace estradiol at low concentrations | 
Biphenol [Example 6] | no estradiol binding | no displacement of the estradiol | estradiol binding / displacement at the alpha estradiol receptor (in words) ([2]; listed as biphenol): no estradiol binding
Cc1cc(C2(c3ccc(O)c(C)c3)CCCCC2)ccc1O [G, Dimethyl Cyclohexyl Bisphenol, reference compound] | displace estradiol at low concentrations | displace estradiol at low concentrations | 
Cc1cc(O)ccc1O [Example 8, Methyl Hydroquinone] | no alpha or beta estradiol displacement |  | estradiol binding / displacement at the beta estradiol receptor (in words) ([1]; text statements, listed as methyl hydroquinone): no estradiol binding
CC(C)(c1ccccc1)c1ccc(O)cc1 [B, p-Cumyl Phenol, reference compound] | displace estradiol at low concentrations | displace estradiol at low concentrations | 
CC(C)(c1ccc(O)cc1)c1cccc(C(C)(C)c2ccc(O)cc2)c1 [K, Bisphenol M, reference compound] | displace estradiol at low concentrations | displace estradiol at low concentrations | 
Diphenolic Acid Methyl Ester [F, reference compound] | displace estradiol at low concentrations | displace estradiol at low concentrations | 
Dihydroxy Diphenyl Ether [Example C, reference compound] | displace estradiol at low concentrations |  | 
Bis Hydroxy Phenyl Menthane [reference compound] | displace estradiol at low concentrations | displace estradiol at low concentrations | 
O=C1c2ccccc2C(c2ccc(O)cc2)(c2ccc(O)cc2)N1c1ccccc1 [Example 3, N-Phenyl Phenolphthalein Bisphenol] | no detectible estradiol displacement | no detectible estradiol displacement | estradiol binding / displacement at the alpha estradiol receptor (in words) ([2]; listed as N-phenyl phenolphthalein bisphenol): no estradiol binding; estradiol binding / displacement at the beta estradiol receptor (in words) ([1]; text statements, listed as N-phenyl phenolphthalein bisphenol): no estradiol binding
Tetra Methyl BPA [Example 1] | no detectible estradiol displacement |  | estradiol binding / displacement at the beta estradiol receptor (in words) ([1]; listed as tetra methyl bisphenol-A): no estradiol binding
Oc1cccc(O)c1 [Example 4, Resorcinol] | no detectible estradiol displacement | no detectible estradiol displacement | estradiol binding / displacement at the alpha estradiol receptor (in words) ([2]; listed as resorcinol): no estradiol binding; estradiol binding / displacement at the beta estradiol receptor (in words) ([1]; text statements, listed as resorcinol): no estradiol binding
